Data on 39 compounds can be found in patent publication US20260315483A1, “HETEROCYCLIC COMPOUNDS AS TRIGGERING RECEPTOR EXPRESSED ON MYELOID CELLS 2 AGONISTS AND METHODS OF USE” (VIGIL NEUROSCIENCE, INC., priority 2023, published 2026).

Bounds are passed on as bounds.

This assay concerns the target T1, human TREM2 (Homo sapiens, UniProt Q9NZC2).
T1 construct: expressed in transfected cells; host or cells: HEK293T-hTREM2 cells (HEK cell line expressing human TREM2 and DAP12)
The experiment in a line: In vitro measurement of TREM2 activity using cellular phosphorylation of spleen tyrosine kinase (Syk), AlphaLisa, HEK293T-hTREM2 cells. Format: cell-based. Particulars: HEK293T cells expressing human TREM2 and DAP12, 45 min at room temperature. As for the experimental part:
In Vitro Measurement of Triggering Receptor Expressed on Myeloid Cells 2 Activity Using Cellular Phosphorylation of Spleen Tyrosine Kinase (“Syk”) Assays
Measurement of TREM2 agonist potency was done using a HEK cell line expressing human TREM2 and DAP12 (HEK293T-hTREM2 cells). Binding of small molecules to, and activation of, TREM2 increases the phosphorylation of Syk. The resultant levels of Syk phosphorylation are measured using a commercial AlphaLisa reagent kit. To perform the assay, HEK-hTREM2 cells were plated at 14,000 cells per well in a 384 well plate, in 25 μL of complete growth media and incubated at 37° C., 5% CO2 for 20-24 hours.
Prior to the assay, test compounds were diluted in the 384 well plates in assay buffer and allowed to equilibrate for 30 minutes. Growth media was removed from cell plates by inversion on blotting paper, and 25 μL of test articles in assay buffer was added to cells. Cells were incubated for 45 minutes at room temperature. After 45 minutes, assay buffer was removed and 10 μL of lysis buffer was added. Plates were shaken for 20 minutes at 350 RPM at room temperature. After complete lysis, AlphaLisa reagents were added to the lysate, and fluourescence intensity was measured using a Perkin Elmer Envision plate reader. Intensities were used to generate a standard curve, and % activation was calculated. Curve fitting was performed using Prism v9 software, log(agonist) vs response—variable slope (four parameters), and EC50s were calculated from the curve fit.
The results presented in Tables D and D-2 have been generated with the in vitro assay described above. This assay may be used to test any of the compounds described herein to assess and characterize a compound's ability to act as an agonist of TREM2.
(Alpha assays give light when donor and acceptor beads are brought close together.)

T1 sequence (Q9NZC2 19-230): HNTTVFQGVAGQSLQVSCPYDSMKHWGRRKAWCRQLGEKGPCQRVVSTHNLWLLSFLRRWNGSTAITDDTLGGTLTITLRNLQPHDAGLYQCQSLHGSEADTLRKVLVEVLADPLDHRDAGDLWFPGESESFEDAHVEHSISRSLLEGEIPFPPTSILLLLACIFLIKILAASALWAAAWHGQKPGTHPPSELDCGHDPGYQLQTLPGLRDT
T1 sequence (O43914 22-113 partner): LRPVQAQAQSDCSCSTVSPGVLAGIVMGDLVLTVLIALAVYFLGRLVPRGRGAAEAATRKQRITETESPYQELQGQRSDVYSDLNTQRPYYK

Take `Cc1cc([C@H]2CN(c3nc(-c4ccc(F)cc4F)c4sc(N(C)C)nc4n3)C[C@@H](C)O2)ccn1` [compound 123, 7-(2,4-difluorophenyl)-N,N-dimethyl-5-[(2R,6S)-2-methyl-6-(2-methyl-4-pyridyl)morpholin-4-yl]thiazolo[4,5-d]pyrimidin-2-amine]: the EC50 (Table D) was at most 50 nM.

`C[C@@H]1CCCN1c1nc2nc([C@H]3CCO[C@@H](c4cnn(C5CC5)c4)C3)nc(-c3ccc(F)cc3F)c2n1C` [compound 124, 6-(2,4-difluorophenyl)-7-methyl-2-[(2R,4S)-2-(1-cyclopropylpyrazol-4-yl)tetrahydropyran-4-yl]-8-[(2R)-2-methylpyrrolidin-1-yl]purine]: the EC50 (Table D) lay within 50 to 500 nM.

Turning to `C[C@H]1CCCN1c1nc2nc([C@H]3CCO[C@@H](c4cnn(C5CC5)c4)C3)nc(-c3ccc(F)cc3F)c2n1C` [compound 125], where the note is “Table D”, the EC50 was 50 to 500 nM.

Regarding `C[C@@H]1CN(c2nc(-c3ccc(C(F)(F)F)cc3F)c3[nH]c(N(C)C)nc3n2)C[C@H](c2cnn(C3CC3)c2)O1` [compound 126, 2-((2S,6R)-2-(1-cyclopropyl-1H-pyrazol-4-yl)-6-methylmorpholino)-6-(2-fluoro-4-(trifluoromethyl)phenyl)-N,N-dimethyl-9H-purin-8-amine], the EC50 (Table D) lay within 50 to 500 nM.

In the case of `Cn1c(C(F)F)nc2nc([C@H]3CCO[C@@H](c4cnn(C5CC5)c4)C3)nc(-c3ccc(C(F)(F)F)cc3F)c21` [compound 127, 2-[(2R,4S)-2-(1-cyclopropylpyrazol-4-yl)tetrahydropyran-4-yl]-8-(difluoromethyl)-6-[2-fluoro-4-(trifluoromethyl)phenyl]-7-methyl-purine], under “Table D”, the EC50 fell in the range of 50 to 500 nM.

Take `CN(C)c1nc2c(C34CC(C(F)(F)F)(C3)C4)nc([C@H]3CCO[C@@H](c4cnn(C5CC5)c4)C3)nc2n1C` [compound 128, 2-[(2R,4S)-2-(1-cyclopropylpyrazol-4-yl)tetrahydropyran-4-yl]-N,N-9-trimethyl-6-[3-(trifluoromethyl)-1-bicyclo[1.1.1]pentanyl]purin-8-amine]: the EC50 (Table D) lay within 500 to 3000 nM.

Regarding `CN(C)c1nc2nc([C@H]3CCO[C@@H](c4cnn(C5CC5)c4)C3)nc(C34CC(C(F)(F)F)(C3)C4)c2[nH]1` [compound 129, 2-[(2R,4S)-2-(1-cyclopropylpyrazol-4-yl)tetrahydropyran-4-yl]-N,N-dimethyl-6-[3-(trifluoromethyl)-1-bicyclo[1.1.1]pentanyl]-7H-purin-8-amine], the EC50 (Table D) is 500 to 3000 nM.

With `C[C@@H]1CN(c2nc(C34CC(C(F)(F)F)(C3)C4)c3c(n2)nc(N(C)C)n3C)C[C@H](c2cnn(C3CC3)c2)O1` [compound 130, 2-[(2S,6R)-2-(1-cyclopropylpyrazol-4-yl)-6-methyl-morpholin-4-yl]-N,N,7-trimethyl-6-[3-(trifluoromethyl)-1-bicyclo[1.1.1]pentanyl]purin-8-amine], the EC50 (Table D) is at most 50 nM.

Take `C[C@@H]1CN(c2cc(-c3ccc(F)cc3F)n3ncnc3n2)C[C@H](c2cnn(C3CC3)c2)O1` [compound 131, (2S,6R)-2-(1-cyclopropyl-1H-pyrazol-4-yl)-4-(7-(2,4-difluorophenyl)-[1,2,4]triazolo[1,5-a]pyrimidin-5-yl)-6-methylmorpholine]: the concentration for a half-maximal effect (EC50) (Table D) was in the range of 500 to 3000 nM.

In the case of `Cc1c(F)ccc(-c2cc(N3C[C@@H](C)O[C@@H](c4cnn(C5CC5)c4)C3)nc3ncnn23)c1F` [compound 132, (2S,6R)-2-(1-cyclopropyl-1H-pyrazol-4-yl)-4-(7-(2,4-difluoro-3-methylphenyl)-[1,2,4]triazolo[1,5-a]pyrimidin-5-yl)-6-methylmorpholine], for the setting “Table D”, the EC50 lay within 500 to 3000 nM.

Compound `Cc1cn2c(-c3ccc(C(F)(F)F)cc3F)nc([C@H]3CCO[C@@H](c4cnn(C5CC5)c4)C3)cc2n1` [compound 133, 7-((2R,4S)-2-(1-cyclopropyl-1H-pyrazol-4-yl)tetrahydro-2H-pyran-4-yl)-5-(2-fluoro-4-(trifluoromethyl)phenyl)-2-methylimidazo[1,2-c]pyrimidine] came in with an EC50 (Table D) of 50 to 500 nM.

The compound `Cc1cn2c(-c3ccc(Cl)cc3F)nc(N3C[C@@H](C)O[C@@H](c4cnn(C5CC5)c4)C3)cc2n1` [compound 134, (2S,6R)-4-(5-(4-chloro-2-fluorophenyl)-2-methylimidazo[1,2-c]pyrimidin-7-yl)-2-(1-cyclopropyl-1H-pyrazol-4-yl)-6-methylmorpholine] registered an EC50 (Table D) of 50 to 500 nM.

Take `CN1Cc2c(cc(N3CCO[C@@H](c4cnn(C)c4)C3)nc2-c2ccc(Cl)cc2F)C1=O` [compound 200]: where the note is “Table D-2”, the EC50 is 3000 to 100000 nM.

Take `Cc1cc([C@H]2CN(c3cc4c(c(-c5ccc(Cl)cc5F)n3)CN(C)C4=O)CCO2)ccn1` [compound 201]: where the note is “Table D-2”, the EC50 lay within 500 to 3000 nM.

Consider `CN1Cc2c(cc(N3CCO[C@@H](c4cnn(C)c4)C3)nc2-c2ccc(F)cc2F)C1=O` [compound 202], for which, where the note is “Table D-2”, the EC50 is 500 to 3000 nM.

With `Cc1cc([C@H]2CN(c3cc4c(c(-c5ccc(F)cc5F)n3)CN(C)C4=O)CCO2)ccn1` [compound 203], the EC50 (Table D-2) was 3000 to 100000 nM.

For the setting “Table D-2”, `CCN1Cc2c(cc(N3CCO[C@@H](c4cnn(C)c4)C3)nc2-c2ccc(Cl)cc2F)C1=O` [compound 204] returned an EC50 of 50 to 500 nM.

Regarding `CC(C)N1Cc2c(cc(N3CCO[C@@H](c4cnn(C)c4)C3)nc2-c2ccc(Cl)cc2F)C1=O` [compound 205], the EC50 (Table D-2) was in the range of 500 to 3000 nM.

For the compound `C[C@H]1CN(c2cc3c(c(-c4ccc(Cl)cc4F)n2)CN(C)C3=O)CCO1` [compound 206], the EC50 (Table D-2) is 500 to 3000 nM.

`CN1C(=O)c2cc(-c3ccc(Cl)cc3F)nc(N3CCO[C@@H](c4cnn(C)c4)C3)c2C1(C)C` [compound 207]: the EC50 (Table D-2) is 3000 to 100000 nM.

For the setting “Table D-2”, `CN1C(=O)c2cc(N3CCO[C@@H](c4cnn(C)c4)C3)nc(-c3ccc(Cl)cc3F)c2C1(C)C` [compound 208] had an EC50 of 3000 to 100000 nM.

Take `C[C@@H]1c2c(cc(N3CCO[C@@H](c4cnn(C)c4)C3)nc2-c2ccc(Cl)cc2F)C(=O)N1C` [compound 209]: where the note is “Table D-2”, the 50% effective concentration (EC50) lay within 3000 to 100000 nM.

For the compound `CN1Cc2c(cc(-c3ccc(Cl)cc3F)nc2-c2ccc(Cl)cc2F)C1=O` [compound 210], the EC50 (Table D-2) fell in the range of 3000 to 100000 nM.

As for `C[C@H]1c2c(cc(-c3ccc(Cl)cc3F)nc2-c2ccc(Cl)cc2F)C(=O)N1C` [compound 211], under “Table D-2”, the EC50 was in the range of 3000 to 100000 nM.

`CN1Cc2c(cc(N3CCO[C@@H](c4cnn(C5CC5)c4)C3)nc2-c2ccc(Cl)cc2F)C1=O` [compound 212]: under “Table D-2”, the EC50 was in the range of 50 to 500 nM.

In turn, `Cc1cc([C@H]2CN(c3cc4c(c(-c5ccc(Cl)cc5F)n3)C(C)N(C)C4=O)CCO2)ccn1` (stereo partly drawn) [compound 213] came in with an EC50 (Table D-2) of 3000 to 100000 nM.

Under “Table D-2”, `Cc1cc([C@H]2CN(c3cc4c(c(-c5ccc(Cl)cc5F)n3)[C@@H](C)N(C)C4=O)CCO2)ccn1` [compound 214] came in with a concentration for a half-maximal effect (EC50) of 3000 to 100000 nM.

In the case of `Cc1cc([C@H]2CN(c3cc4c(c(-c5ccc(Cl)cc5F)n3)[C@H](C)N(C)C4=O)CCO2)ccn1` [compound 215], the EC50 (Table D-2) lay in the range of 3000 to 100000 nM.

In the case of `CN1Cc2c(cc(N3CCO[C@@H](c4cnn(C)c4)C3)nc2C2CC(C(F)(F)F)C2)C1=O` (stereo partly drawn) [compound 216], the EC50 (Table D-2) is 3000 to 100000 nM.

On to `Cc1cc([C@H]2CN(c3cc4c(c(-c5ccc(Cl)cc5F)n3)CN(C)C4=O)CCO2)cnn1` [compound 217], for which, for the setting “Table D-2”, the EC50 was 500 to 3000 nM.

For the compound `CN1C(=O)c2cc([C@@H]3CCO[C@H](c4cnn(C5CC5)c4)C3)nc(-c3ccc(F)cc3F)c2C1=O` [compound 218], for the setting “Table D-2”, the EC50 was in the range of 500 to 3000 nM.

Regarding `CN1C(=O)c2cc([C@H]3CCO[C@@H](c4cnn(C5CC5)c4)C3)nc(-c3ccc(F)cc3F)c2C1=O` [compound 219], the EC50 (Table D-2) was 500 to 3000 nM.

On to `C[C@@H]1CN(c2cc3c(c(C4CC(C(F)(F)F)C4)n2)CN(C)C3=O)C[C@H](c2cnn(C3CC3)c2)O1` (stereo partly drawn) [compound 220], for which, under “Table D-2”, the concentration for a half-maximal effect (EC50) is 50 to 500 nM.

Where the note is “Table D-2”, `C[C@@H]1CN(c2cc3c(c(-c4ccc(C(F)(F)F)cc4F)n2)CN(C)C3=O)C[C@H](c2cnn(C3CC3)c2)O1` [compound 221] gave an EC50 of at most 50 nM.

For the setting “Table D-2”, `CN1Cc2c(cc(C3CCO[C@@H](c4cnn(C5CC5)c4)C3)nc2-c2ccc(C(F)(F)F)cc2F)C1=O` (stereo partly drawn) [compound 222] registered an EC50 of 50 to 500 nM.

Where the note is “Table D-2”, `CN1Cc2c(cc([C@@H]3CCO[C@@H](c4cnn(C5CC5)c4)C3)nc2-c2ccc(C(F)(F)F)cc2F)C1=O` [compound 223] had an EC50 of 50 to 500 nM.

Where the note is “Table D-2”, `CN1Cc2c(cc([C@H]3CCO[C@@H](c4cnn(C5CC5)c4)C3)nc2-c2ccc(C(F)(F)F)cc2F)C1=O` [compound 224] displayed an EC50 of 50 to 500 nM.

As for `CN1Cc2c(cc(C3CCO[C@@H](c4cnn(C5CC5)c4)C3)nc2C2CC(C(F)(F)F)C2)C1=O` (stereo partly drawn) [compound 225], for the setting “Table D-2”, the EC50 lay in the range of 50 to 500 nM.

For the setting “Table D-2”, `CN1Cc2c(cc([C@H]3CCO[C@@H](c4cnn(C5CC5)c4)C3)nc2C23CC(C(F)(F)F)(C2)C3)C1=O` [compound 226] returned an EC50 of 50 to 500 nM.

Broadly, the EC50 is the midpoint of the concentration-response curve.
